How the values were obtained:
[1] = biological target: tryptophanase of Bacteroides tetaiotaomicron (Bacteroides thetaiotaomicron, UniProt Q8A7N2); experiment: Tryptophanase enzyme inhibitory activity (LDH-coupled NADH loss); format: biochemical; settings: 10 mM L-tryptophan, 30 min preincubation at 37° C., absorbance at 340 nm
Method: Tryptophanase inhibitory activity was evaluated by a method using lactate dehydrogenase (LDH). The reaction time-dependent reduction in NADH conjugated with the enzymatic reaction, with LDH, of pyruvic acid produced through the enzymatic reaction of L-tryptophan as a substrate with tryptophanase, was measured with a spectrophotometer (Phillips-R S et al., Biochemistry, 23, 6228-6234 (1984)). Enzyme inhibitory activity obtained without adding a test compound (by adding DMSO alone) in the presence of tryptophanase was used as a control. As the enzyme, tryptophanase of Bacteroides tetaiotaomicron (Genbank accession number: HC914434.1) was used.
A test compound solution was prepared by dissolving each test compound in DMSO at concentrations (from 30 mM to 30 nM at 10-fold common ratio). LDH, NADH and L-tryptophan were dissolved, using distilled water, respectively to concentrations of 80 units/mL, 10 mM and 50 mM. Bacteroides tryptophanase was prepared to 30 mg/mL. A potassium phosphate buffer was used as the buffer.
A reaction solution A was dispensed at 284.8 μL per well into a 96-well plate, and the test compound solution was added at 3.2 μL per well to obtain a final concentration of 1/100 (reaction solution B). The reaction solution B was incubated at 37° C. for 30 minutes, L-tryptophan was added thereto at 32 μL per well to obtain a final concentration of […] (reaction solution C), and the enzyme reaction was performed at 37° C. over 30 minutes with absorbance at 340 nm measured for monitoring the NADH loss. Based on the NADH loss, the tryptophanase inhibitory activity of the compound was evaluated.

Bacteroides = experiment: Indole production suppressing effect in viable bacterium; format: cell-based; settings: 5 mM L-Tryptophan assay medium, anaerobic, indole in culture supernatant, read-out: Bacteroides Indole Production Inhibitory Activity(IC50)
Method: The effect of a tryptophanase inhibitory compound to suppress indole production from a viable bacterium can be evaluated through the following operation.
When E. coli (Eschelicia coli) is used as a strain known to produce indole, the strain is cultured in an LB medium at 37° C. for 12 to 18 hours under anaerobic conditions, and then, suspended in an assay medium (5 mM L-Tryptophan/PBS(+)/25 mM HEPES (pH8)) in such a manner as to obtain O.D. of about 0.3. When bacteroides is used, the strain is cultured in a modified GAM medium at 37° C. for 12 to 18 hours under anaerobic conditions, and then suspended in an assay medium (5 mM L-Tryptophan/PBS(+)/25 mM HEPES (pH8)) in such a manner as to obtain O.D. of about 1.1. The thus obtained viable bacterial suspension prepared to have a final concentration of a compound of 1 μM to 10 mM is dispensed at 200 μL per well into a 96-well plate and cultured at 37° C. for 2 to 4 hours under anaerobic conditions, O.D., an ATP concentration (that can be quantitatively determined by using BacTiter-Glo (Promega Corporation)) and an indole concentration in the culture supernatant (that can be quantitatively determined by utilizing Ehrlich reaction) are measured. The effect of the tryptophanase inhibitory compound to suppress indole production from a viable bacterium can be evaluated depending on the degree of lowering of the indole concentration in the culture supernatant. It can be checked whether or not the effect is derived from a function other than tryptophanase inhibition, such as a bactericidal function or a bacterial growth inhibitory function, depending on lowering of the O.D. or reduction in the ATP concentration or by performing a generally practiced antibacterial activity test (a MIC (minimum growth inhibition concentration) test) using levofloxacin or the like as a positive control.
The activities of inhibiting indole production of the compounds of the respective examples shown in Table 13 were measured by the above-described method using Bacteroides to evaluate the effect of inhibiting indole production.

plasma indoxyl sulfate = experiment: Effect of reducing plasma indoxyl sulfate concentration in mice; format: in vivo; settings: oral gavage, plasma 6 hours after L-tryptophan
Method: An effect of a tryptophanase inhibitory compound to reduce plasma indoxyl sulfate concentration in a mouse can be evaluated through the following operation.
After fasting male BALB/c mice overnight, a tryptophanase inhibitory compound dissolved or suspended at a concentration of 0.01 to 10 mg/mL in 0.5% methylcellulose (MC) solution used as a solvent and 0.5% MC solution are orally administered by gavage at a volume of 10 mL/kg respectively to test compound groups and to a solvent control group. 30 minutes after the administration of the test compound or the solvent, L-tryptophan, that is, a substrate of tryptophanase, is orally administered by gavage at a dose of 1 to 3 g/kg. The L-tryptophan is suspended in a 0.5% tragacanth solution. For 12 hours after the administration of the L-tryptophan, blood is collected over time from a tail vein by using a hematocrit tube. The thus obtained blood is centrifuged at 11,000 rpm for 5 minutes to collect plasma, and the indoxyl sulfate concentration in the plasma is measured singly by liquid chromatography (fluorescence detection) or its combination with a mass spectrometer used subsequently. Plasma indoxyl sulfate concentration in the test compound group against the plasma indoxyl sulfate concentration in the solvent control group is calculated as, for example, a ratio of the area under a curve of the indoxyl sulfate concentration, and thus, the efficacy of each compound in vivo can be compared.
The indoxyl sulfate concentrations in plasma obtained by using the compounds of the respective examples shown in Table 14 below were measured by the above-described method to evaluate the plasma indoxyl sulfate suppressing effect.

Sequence of tryptophanase of Bacteroides tetaiotaomicron (Q8A7N2 entry or part of it, change not shown): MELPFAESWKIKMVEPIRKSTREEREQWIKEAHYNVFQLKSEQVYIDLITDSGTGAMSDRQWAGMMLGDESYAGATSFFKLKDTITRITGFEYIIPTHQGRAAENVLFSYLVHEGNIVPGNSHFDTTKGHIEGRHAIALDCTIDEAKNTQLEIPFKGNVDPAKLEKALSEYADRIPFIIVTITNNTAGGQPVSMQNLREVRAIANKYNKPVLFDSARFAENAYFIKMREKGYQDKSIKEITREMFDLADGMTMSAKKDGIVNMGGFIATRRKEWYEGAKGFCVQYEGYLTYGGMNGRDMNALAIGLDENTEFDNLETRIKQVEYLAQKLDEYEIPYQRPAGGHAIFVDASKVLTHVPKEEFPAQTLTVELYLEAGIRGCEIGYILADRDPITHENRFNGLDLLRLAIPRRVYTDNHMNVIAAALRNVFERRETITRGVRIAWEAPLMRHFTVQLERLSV

SMILES	IC50 [1] [nM]	IC50 (Bacteroides) [nM]	Plasma Indoxyl Sulfate Reduction Effect in Male BALB/c Mouse (Indoxyl sulfate reduction effect in plasma 6 hours after administration of L-tryptophan: ED75-, mg/kg) (plasma indoxyl sulfate) [mg/kg]
CCOc1cc(N)c(F)cc1C(=O)N[C@](C)(CC)C(=O)O [Compound of Example 23, (−)-N-(4-Amino-2-ethoxy-5-fluorobenzoyl)-D-isovaline]	490	< 3000	1
CCOc1cc(N)c(F)cc1C(=O)N[C@@](C)(CC)C(=O)O [Compound of Example 24, (+)-N-(4-Amino-2-ethoxy-5-fluorobenzoyl)-L-isovaline]	130	< 3000	1
CCCOc1cc(N)c(Cl)cc1C(=O)N[C@](C)(CC)C(=O)O [Compound of Example 25, (−)-N-(4-Amino-5-chloro-2-propoxybenzoyl)-D-isovaline]	40	< 3000	1
CCCOc1cc(N)c(F)cc1C(=O)N[C@](C)(CC)C(=O)O [Compound of Example 27, (−)-N-(4-Amino-5-fluoro-2-propoxybenzoyl)-D-isovaline]	90	< 3000	1
